Assay results published in patent publication US20140309184A1, “METHODS AND COMPOSITIONS FOR THE TREATMENT OF OVARIAN CANCER” (UNIVERSITY OF SOUTH ALABAMA, priority 2011, published 2014).

Assays:
[1] = test system: CP2780 xenografts; assay: Xenograft tumor growth, carboplatin-resistant model; format: in vivo; conditions: SCID mice; BMS-833923 100 mg/kg i.p. daily, Carboplatin 40 mg/kg i.p. twice a week, two weeks
Experimental: (§1) Female SCID mice 6-8 weeks old were inoculated i.p. with 5×10^6 A2780 or A2780/CP70 cells suspended in 200 μL PBS (PH 7.4). Seven days later when the tumor reached a size of greater than 150 mm^3, the mice were randomly divided into 4 groups (8 mice per group) as follows: (1) PBS-treated control; (2) BMS-833923 alone (100 mg/kg, i.p. daily, two weeks); (3) Carboplatin alone (40 mg/kg, i.p. twice a week, two weeks); (4) Combination of BMS-833923 and Carboplatin treatment. Mice were weighed and tumor diameters were measured with calipers every 2-3 days for 20 days. The tumor volumes (mm^3) were calculated as (W^2×L)/2, where W and L are the minor and major diameters (in millimeters), respectively.
(§2) Xenograft experiments were performed as described above. Carboplatin was dosed days 7, 11, 14, 18; BMS-833923 was dosed days 8 through 20. The experiment was terminated due to excessive tumor size in vehicle and BMS-833923 treatment groups.
The CP2780 was derived from the A2780 Ovarian tumor xenograft model by selection for resistance to cisplatin. The CP2780 growth appeared to be more robust than observed for parental A2780 model (FIG. 12B). Average tumor volume doubling time for CP2780 was estimated at 2 days. Doubling time for parental A2780 tumor model was estimated at 3 days. […]

[2] = Percent body weight change in xenograft experiments; format: in vivo, SCID mice; conditions: xenograft mice; BMS-833923 100 mg/kg i.p. daily, Carboplatin 40 mg/kg i.p. twice a week
Experimental: as §1
Xenograft experiments were performed as described above. […] However, under such dosage (100 mg/kg, i.p. daily, for two weeks), treatment with BMS-833923 appeared to have little effect on the growth of A2780 or A2780/CP70 xenografts in vivo (FIG. 13). […] However, this dosage has little effect on the growth of CP2780 xenografts in vivo.

[3] = test system: A2780/CP70 cells; assay: Carboplatin IC50 with and without BMS-833923 in platinum resistant cell line; format: cell-based
Experimental: (§3) Considering the synergy described above and that the Hedgehog pathway is associated with cancer stem cell properties. In the effect of BMS-833923 plus carboplatin in two isogenic ovarian cancer cell lines specifically designed to evaluate platinum resistance mechanisms: A2780 (platinum sensitive) & A2780/CP70 (platinum resistant). Each cell line was evaluated to determine the IC50 dose of carboplatin to ensure a discernable difference in platinum treatment could be determined (FIG. 11A). The A2780/CP70 cell line required a 4-fold increase in carboplatin to reach IC50 (A2780/CP70=400 μM; A2780=100 μM). […] (FIG. 11B and FIG. 11C).

[4] = test system: A2780 cells; assay: Carboplatin IC50 in platinum sensitive cell line; format: cell-based; conditions: read-out: IC50 dose of carboplatin
Experimental: as §3

[5] = test system: A2780 xenografts; assay: Xenograft tumor growth, carboplatin-sensitive model; format: in vivo; conditions: SCID mice; BMS-833923 100 mg/kg i.p. daily, Carboplatin 40 mg/kg i.p. twice a week, two weeks
Experimental: as §1, §2

[6] = test system: SKOV3 cells; assay: MTS cell survival with BMS-833923 plus chemotherapy, Calcusyn combination index; format: cell-based
Experimental: An MTS in vitro assay was performed using chemotherapy agents commonly used for ovarian cancer (carboplatin, paclitaxel, gemcitabine, topotecan and liposomal doxorubicin) with or without BMS-833923. Ovarian cancer cells ES2, SKOV3, OV90 and TOV112D were seeded at a density of 4,000 cells/well in 96-well tissue culture plates. The following day, fresh medium was added to each well and treated with IC50 concentrations of BMS-833923 as well as the aforementioned chemotherapies and kept at 37° C. in a humidified 5% CO2 atmosphere. Every 24 hr, 20 μl/well of MTS reagent were added in 96 well plates and stored in 37° C. incubator for about 3 hr followed by absorbance reading at 490 nm. The assay was carried out up to 72 hrs at various concentrations described herein.
With a cross-diagonal multidrug treatment design, the combination index (CI) was calculated to determine mathematical synergy using the median effect method per Calcusyn software (Biosoft, Ferguson, Mo.). This software utilizes multiple drug dose-effect calculations using the Median Effect methods (Chou T. C., et al., Trends Pharmacol. Sci. 4, 450-454). […] The fraction of cells affected (Fa) by carboplatin and BMS-833923 was used to calculate dose response curves and the CI. Statistically Calcusyn quantifies phenomena such as synergism vs. additive effects as well as inhibition (antagonism). Calcusyn software defines synergy as a CI value<1 with the extent of synergism stratified as follows: Possible Synergy: 1.0-0.91; Moderate Synergy: […]; and Clear Synergy: 0.7-0.3. A CI=1 may be indicative of additivity; a CI>1 may be indicative of antagonism.
Combination indices were calculated to determine mathematical synergy using the median effect method per Calcusyn software (Biosoft, Ferguson, Mo.) as described above. Monolayers of SKOV3 cells were contacted with various chemotherapeutic agents, and BMS-833923 in combination with various chemotherapeutic agents. The chemotherapeutic agents included Carboplatin, Taxol™, Gemzar™, Topotecan (Hycamtim™), and Doxil™. The percentage survival of the contacted SKOV3 cells was measured over 72 hours. Synergistic effects were calculated statistically using Calcusyn™ Software. A combination index (CI) less than 1 indicates synergy; a CI equal to 1 indicates additivity; a CI greater than 1 indicated antagonism.
Combination indices were calculated to determine mathematical synergy using the median effect method per Calcusyn software (Biosoft, Ferguson, Mo.) as described above. […] Per prior definitions this represents Clear Synergy defined as CI<0.7. This level of synergy would result in a 2- to 14-fold reduction of carboplatin dose required with the addition of BMS-833923. (Table 5 and FIG. 9).
The dose reduction index (DRI) was determined for experimental values using the Calcusyn software package, with the relative CI and the fraction affected to determine the relative reduction in a dose to achieve similar effects with a single agent (Table 6).

[7] = MTD for combination therapy; format: in vivo; conditions: BMS-833923 + carboplatin given together; previously demonstrated
From the text: Treatment with BMS-833923 appeared to have little effect on the growth of A2780 xenografts in vivo.

[8] = test system: SHH; assay: Quantitative real time PCR in carboplatin treated SKOV3 cells; format: cell-based; conditions: SKOV3, various concentrations of carboplatin
Experimental: SKOV3 cells were treated with various concentrations of carboplatin and the levels of SHH, Smo, PTCH, and Gli1 determined using quantitative real time PCR. Carboplatin treatment unregulated SHH (FIG. 14).

SMILES: N.N.O=C([O-])C1(C(=O)[O-])CCC1.[Pt+2] [Carboplatin, carboplatin]
- effect on growth of CP2780 (A2780/CP70) xenografts in vivo [1]: little effect
- Percent body weight change [2]: Combination<Carboplatin alone<BMS-833923 alone
- increase in carboplatin to reach IC50, A2780/CP70 versus A2780 [3]: 4 fold
- IC50 ([3]; A2780/CP70 (platinum resistant), read-out: IC50 dose of carboplatin): 400 µM
- IC50 [4]: 100 µM
- effect on growth of A2780 xenografts in vivo [5]: inhibited growth
- Carboplatin DRI ([6]; fraction affected 16.6%): 14.869
- Carboplatin single agent dose to achieve the fraction affected ([6]; fraction affected 16.6%): 892.1349 µM
- Carboplatin DRI ([6]; fraction affected 29.1%): 8.06e+006
- Carboplatin single agent dose to achieve the fraction affected ([6]; fraction affected 29.1%): 5.642e+08 µM
- Carboplatin DRI ([6]; fraction affected 38.4%): 2.07e+010
- Carboplatin single agent dose to achieve the fraction affected ([6]; fraction affected 38.4%): 1.243e+12 µM
- Carboplatin DRI ([6]; fraction affected 41.8%): 2.45e+011
- Carboplatin single agent dose to achieve the fraction affected ([6]; fraction affected 41.8%): 1.716e+13 µM
- MTD for combination therapy [7]: 40 mg/kg
- SHH mRNA level [8]: unregulated
